2 compounds from PubChem BioAssay AID1259407 (Chemical Carcinogenesis Research Information System (CCRIS), 2018) can be followed below.

The series concerns CCRIS mutagenicity, Ames/micronucleus/aberration tests. Kind of series: CCRIS mutagenicity studies.
Where [1] appears, read: Test System: AMES SALMONELLA TYPHIMURIUM, Strain/Indicator: TA98, Metabolic Activation: NONE, Method: PREINCUBATION
[2] abbreviates: Test System: AMES SALMONELLA TYPHIMURIUM, Strain/Indicator: TA100, Metabolic Activation: NONE, Method: PREINCUBATION
Where [3] appears, read: Test System: AMES SALMONELLA TYPHIMURIUM, Strain/Indicator: TA1535, Metabolic Activation: NONE, Method: PREINCUBATION
Where [4] appears, read: Test System: AMES SALMONELLA TYPHIMURIUM, Strain/Indicator: TA1537, Metabolic Activation: NONE, Method: PREINCUBATION

SMILES strings stand for the structures. Activity calls are given as the source filed them. The rule behind the calls is not given here.

Turning to `[O]=[Mo](=[O])=[O]`, the mutagenic call runs as follows: (Test System: AMES SALMONELLA TYPHIMURIUM, Strain/Indicator: TA97, Metabolic Activation: HAMSTER, LIVER, S-9, AROCLOR 1254 (10%), Method: PREINCUBATION) “inactive; negative”; (Test System: AMES SALMONELLA TYPHIMURIUM, Strain/Indicator: TA97, Metabolic Activation: HAMSTER, LIVER, S-9, AROCLOR 1254 (30%), Method: PREINCUBATION) “inactive; negative”; (Test System: AMES SALMONELLA TYPHIMURIUM, Strain/Indicator: TA97, Metabolic Activation: NONE, Method: PREINCUBATION) “inactive; negative”; (Test System: AMES SALMONELLA TYPHIMURIUM, Strain/Indicator: TA97, Metabolic Activation: RAT, LIVER, S-9, AROCLOR 1254 (10%), Method: PREINCUBATION) “inactive; negative”; (Test System: AMES SALMONELLA TYPHIMURIUM, Strain/Indicator: TA97, Metabolic Activation: RAT, LIVER, S-9, AROCLOR 1254 (30%), Method: PREINCUBATION) “inactive; negative”; (Test System: AMES SALMONELLA TYPHIMURIUM, Strain/Indicator: TA98, Metabolic Activation: HAMSTER, LIVER, S-9, AROCLOR 1254 (10 OR 30%), Method: PREINCUBATION) “inactive; negative”. Besides, the mutagenic call reads like this: under setting [1], “inactive; negative”; (Test System: AMES SALMONELLA TYPHIMURIUM, Strain/Indicator: TA98, Metabolic Activation: RAT, LIVER, S-9, AROCLOR 1254 (10 OR 30%), Method: PREINCUBATION) “inactive; negative”; (Test System: AMES SALMONELLA TYPHIMURIUM, Strain/Indicator: TA100, Metabolic Activation: HAMSTER, LIVER, S-9, AROCLOR 1254 (10% OR 30%), Method: PREINCUBATION) “inactive; negative”; under setting [2], “inactive; negative”; (Test System: AMES SALMONELLA TYPHIMURIUM, Strain/Indicator: TA100, Metabolic Activation: RAT, LIVER, S-9, AROCLOR 1254 (10% OR 30%), Method: PREINCUBATION) “inactive; negative”; (Test System: AMES SALMONELLA TYPHIMURIUM, Strain/Indicator: TA1535, Metabolic Activation: HAMSTER, LIVER, S-9, AROCLOR 1254 (10%), Method: PREINCUBATION) “inactive; negative”. The mutagenic call reads like this: (Test System: AMES SALMONELLA TYPHIMURIUM, Strain/Indicator: TA1535, Metabolic Activation: HAMSTER, LIVER, S-9, AROCLOR 1254 (30%), Method: PREINCUBATION) “inactive; negative”; under setting [3], “inactive; negative”; (Test System: AMES SALMONELLA TYPHIMURIUM, Strain/Indicator: TA1535, Metabolic Activation: RAT, LIVER, S-9, AROCLOR 1254 (10%), Method: PREINCUBATION) “inactive; negative”; (Test System: AMES SALMONELLA TYPHIMURIUM, Strain/Indicator: TA1535, Metabolic Activation: RAT, LIVER, S-9, AROCLOR 1254 (30%), Method: PREINCUBATION) “inactive; negative”; (Test System: AMES SALMONELLA TYPHIMURIUM, Strain/Indicator: TA1537, Metabolic Activation: HAMSTER, LIVER, S-9, AROCLOR 1254 (30%), Method: PREINCUBATION) “inactive; negative”; under setting [4], “inactive; negative”. The mutagenic call by setting is: (Test System: AMES SALMONELLA TYPHIMURIUM, Strain/Indicator: TA1537, Metabolic Activation: RAT, LIVER, S-9, AROCLOR 1254 (30%), Method: PREINCUBATION) “inactive; negative”; (Test System: MOUSE LYMPHOMA, Strain/Indicator: L5178Y (TK+/TK-), Metabolic Activation: RAT, LIVER, S-9, AROCLOR 1254, Method: SUSPENSION/PLATE) “active; positive. reevaluation of results: positive”; (Test System: Mouse lymphoma, Strain/Indicator: L5178Y (tk+/tk-), Metabolic Activation: None, Method: Suspension/plate) “inactive; inconclusive (previous evaluation negative)”.

`Nc1cc(S(=O)(=O)O)cc2cc(S(=O)(=O)O)cc(O)c12`: the mutagenic call is “inactive; negative” under setting [1]; “inactive; negative” (Test System: AMES SALMONELLA TYPHIMURIUM, Strain/Indicator: TA98, Metabolic Activation: RAT LIVER S-9, PHENOBARBITAL AND BETA-NAPHTHOFLAVONE, Method: PREINCUBATION); “inactive; negative” under setting [2]; “inactive; negative” (Test System: AMES SALMONELLA TYPHIMURIUM, Strain/Indicator: TA100, Metabolic Activation: RAT LIVER S-9, PHENOBARBITAL AND BETA-NAPHTHOFLAVONE, Method: PREINCUBATION); “inactive; negative” under setting [3]; “inactive; negative” (Test System: AMES SALMONELLA TYPHIMURIUM, Strain/Indicator: TA1535, Metabolic Activation: RAT LIVER S-9, PHENOBARBITAL AND BETA-NAPHTHOFLAVONE, Method: PREINCUBATION). Also, the mutagenic call is “inactive; negative” under setting [4]; “inactive; negative” (Test System: AMES SALMONELLA TYPHIMURIUM, Strain/Indicator: TA1537, Metabolic Activation: RAT LIVER S-9, PHENOBARBITAL AND BETA-NAPHTHOFLAVONE, Method: PREINCUBATION); “inactive; negative” (Test System: AMES SALMONELLA TYPHIMURIUM, Strain/Indicator: TA1538, Metabolic Activation: NONE, Method: PREINCUBATION); “inactive; negative” (Test System: AMES SALMONELLA TYPHIMURIUM, Strain/Indicator: TA1538, Metabolic Activation: RAT LIVER S-9, PHENOBARBITAL AND BETA-NAPHTHOFLAVONE, Method: PREINCUBATION); “inactive; negative” (Test System: E.COLI, Strain/Indicator: WP2UVRA, Metabolic Activation: NONE, Method: PREINCUBATION); “inactive; negative” (Test System: E.COLI, Strain/Indicator: WP2UVRA, Metabolic Activation: RAT LIVER S-9, PHENOBARBITAL AND BETA-NAPHTHOFLAVONE, Method: PREINCUBATION).
